Experiments:
[1] = molecular target: BRD4-BD1 (Homo sapiens, UniProt O60885); assay: BRD4 AlphaLISA assay, BRD4-BD1; type: binding; settings: displacement of acetyl-histone H4 peptide (Lys5, 8, 12, 16)
Description: (§1) This bead-based proximity assay is based on the competitive displacement of a histone peptide (acetyl-histone H4/Lys5, 8, 12, 16) from the human bromodomain [22].

[2] = molecular target: BRD4-BD2 (Homo sapiens, UniProt O60885); assay: BRD4 AlphaLISA assay, BRD4-BD2; type: binding; settings: displacement of acetyl-histone H4 peptide (Lys5, 8, 12, 16)
Description: as §1

[3] = system: 10–15 BRD4-NUT; assay: Cell proliferation assay (Alamar readout), 10–15; type: cell-based, human; settings: Homo sapiens, 96h, read-out: geomean GI50
Procedure: (§2) The NUT Carcinoma cell line Ty-82 was purchased from JCRB Japan No. 1330 and cultivated in RPMI 1640 supplemented with 10% fetal calf serum (FCS). The NC cell lines 10–15, 14169 and 10326 were in-licensed from Christopher French, Brigham & Womens Hospital, Boston, and were cultivated in DMEM supplemented with glutamax and 10% FCS.
(§3) Viability assays were performed on 96-well flat-bottom microtiter plates and incubated with Alamar Blue solution (Invitrogen, Carlsbad, US-CA). The effects of drug combinations were analysed using the Bliss Independence Model.
(§4) Dose response curves (96h cell proliferation assay - Alamar readout) on four NC cell lines with BET inhibitor BI 894999. Yellow bar: readout t zero (before adding of compound). Green bar: DMSO control (max proliferation).
(§5) Dose response curves (96h cell proliferation assay - Alamar readout) on four NC cell lines with multiple BET inhibitors.

[4] = system: 10326 BRD3-NUT; assay: Cell proliferation assay (Alamar readout), 10326; type: cell-based, human; settings: Homo sapiens, 96h, read-out: geomean GI50
Procedure: as §2, §3, §4, §5

[5] = system: NC lines (Ty-82) versus AML cell lines (MV-4-11); assay: Incucyte caspase-3/7 apoptosis / cell death analysis; type: cell-based, human; settings: in contrast to AML cell lines, Supplementary Fig. S3
Procedure: Live-cell imaging was performed with the Incucyte® S3 Live-Cell Analysis System as described previously for Incucyte® Zoom.
Incucyte analysis. Ty-82 cells (NC) or MV-4-11 (AML) cells were treated with BI 894999 at the concentrations indicated and analyzed over time with the IncuCyte™Caspase-3/7 Apoptosis Assay Reagent (Essenbioscience Cat No 4440). Cell confluence (left) and green fluorescence as a measure of caspase 3/7 activation (right) were monitored for up to 7 days with images taken every 3 hours.

[6] = system: HEXIM1 and HIST2H2BF; assay: Nanostring analysis of pathway modulation markers in patient blood; type: in vivo; settings: patients
Procedure: (§6) Schedule B (NCT02516553): daily oral treatment from Day 1 to Day 14 at 2.5 mg/day followed by a week-off in 3-week cycles. Schedule C (NCT02516553): one week-on, one week-off treatment, repeated every two weeks in 4-week cycles with, at each treatment week, a loading dose (6 mg) on Day 1 followed by a maintenance dose (3 mg per day) on the following 6 days.
Total RNA was extracted from whole blood using PAXgene Blood RNA kit (Qiagen) following the manufacturers’ instructions. Total RNA was quantified by direct absorbance measurement at 260 nm using a NanoDrop Spectrophotometer. Quality check was performed by additional measurement of absorbance at 280 nm and calculation of the absorbance ratio OD260/OD280.
mRNA expression was assessed using a custom NanoString nCounter codeset generated for the genes of interest plus housekeeping genes. In brief, probes were hybridised to 150 ng of total RNA for 19 h at 65 °C and applied to the nCounter™ Preparation Station for automated removal of excess probe and immobilisation of probe‐transcript complexes on a streptavidin‐coated cartridge. Data was collected using the nCounter™ Digital Analyzer by counting the individual barcodes.
Data were analysed using an in-house analysis pipeline that follows the latest Nanostring Technologies standards for the analysis of nCounter data. The analysis pipeline includes QC of the raw data using the NACHO [26]. The housekeeping genes ACTB, GAPDH, HPRT1, MGAT1 and TMED9 were used for normalisation. After normalisation expression values were exported and used for figure generation using […] [27].

[7] = Phase I trial MTD and platelet counts (NCT02516553); type: in vivo; settings: patients
Procedure: as §6

[8] = system: HEXIM1; assay: Pharmacometrics (PK/PD) simulation; settings: Supplement Fig. 6
Procedure: Pharmacometrics simulation for platelet counts (top) and plasma concentration (bottom) as a function of four different dosing regimens of BI 894999. Solid line of 10nM indicated the estimated plasma concentration needed to stimulate a maximum 2-fold change from baseline for HEXIM1.

[9] = system: Ty-82 xenograft (BRD4-NUT); assay: Ty-82 NC xenograft model; type: in vivo, mice; settings: 2 mg/kg BI 894999 p.o. daily
Description: (§7) Mice were group-housed (8–10 mice per cage) under pathogen-free and controlled environmental conditions (21 ± 1.5 C temperature, 55 ± 10% humidity) in an AAALAC accredited facility and handled according to the institutional, governmental and European Union guidelines (Austrian Animal Protection Laws, GV-SOLAS and FELASA guidelines). Animal studies were approved by the internal ethics committee and the local government committee. Mice were 6- to 8-week-old female CIEA NOG purchased from Taconic, Denmark (NOD.Cg-Prkdc^scid Il2rg^tm1Sug/JicTac). 5 × 10^6 NC tumour cells were injected subcutaneously into the right flank of the mice (1 site per mouse). Mice were randomly distributed between the treatment and the vehicle control when tumours were well established and had reached volumes of 100–150 mm^3. Compounds were suspended in 0.5% Natrosol and administered once daily intra-gastral by gavage needle. Tumour diameters were measured three times a week with a calliper. […] Within each subtopic the p-values of the efficacy parameters were adjusted for multiple comparisons according to Bonferroni–Holm. The p-values of the tolerability parameter remained unadjusted in order not to overlook a possible adverse effect. The level of significance was fixed at α = 5%. An adjusted p-value of less than 0.05 was considered to show a statistically significant difference between the groups. The statistical evaluation was prepared using the software Graph Pad Prism.

[10] = system: 10–15 xenograft (BRD4-NUT); assay: 10–15 NC xenograft model; type: in vivo, mice; settings: 2 mg/kg BI 894999
Description: as §7

[11] = system: 10326 xenograft (BRD3-NUT); assay: 10326 NC xenograft model; type: in vivo; settings: 2 mg/kg BI 894999
Description: as §7

[12] = PK analysis in mouse plasma; type: in vivo; settings: CIEA NOG (NOD.Cg-Prkdc^scid Il2rg^tm1Sug/JicTac), po, mice, 2 mg/kg p.o.
Description: PK analysis in mouse plasma. Oral treatment at the indicated doses. Sampling at the indicated timepoints.

[13] = system: HEXIM1; assay: HEXIM1 modulation in mouse blood; type: in vivo; settings: mice; 2 mg/kg p.o.
Description: Cmax and PD modulation of Ty-82 tumors treated with BI 894999.

## CNc1nc(-c2nc3ccc(N4CCN(C)CC4)cc3n2Cc2ccccc2)cn2c(C)nnc12 [BI 894999]
[1]
  IC50: 5 ± 3 nM
[2]
  IC50: 41 ± 30 nM
[3]
  GI50: 1.7 nM
[4]
  GI50: 1.2 nM
[5]
  fold higher compound concentrations required to undergo cell death: > 100 fold
[6]; Schedule B 2.5 mg
  pharmacodynamic modulation of HEXIM1 and HIST2H2BF: max. two-fold
[6]; Schedule C 6/3 mg, maximum
  PD modulation of HEXIM1 and HIST2H2BF: up to four-fold
[6]; Schedule C, 23.5 h after drug application
  PD modulation of HEXIM1 and HIST2H2BF still measurable: two-fold
[7]; Schedule C compared to Schedule B at MTD, comparable 6-week cumulative dose (72 vs 70 mg)
  tolerability as measured by platelet nadir counts: better tolerability
[7]; Schedule C versus Schedule B at equivalent 6-week cumulative dose
  thrombocytopenia events: less >Grade 3 thrombocytopenia events
[7]; Schedule C, Day 1
  MTD, loading dose: 6 mg
[7]; Schedule C, following 6 days
  MTD, maintenance dose: 3 mg
[8]
  estimated plasma concentration needed to stimulate a maximum 2-fold change from baseline for HEXIM1: 10 nM
[9]
  TGI (tumour growth inhibition): 5%
[10]
  TGI: 40%
[11]
  TGI: 99%
[12]
  Cmax: 10 nM
[13]
  HEXIM1 modulation in the blood: ~ 2 fold
